Experimental findings from PMC6173183 (International Journal of Nanomedicine, 2018) are described below.

In the data set the test system is in vitro BBB model (HBMEC). Nature of the data set: BBB penetration in vitro: transport ratio across HBMEC transwell model. The class given is in vitro ADME, human. The following applies: 240 minutes, FITC 10 μmol⋅L^−1.

Turning to fluorescein isothiocyanate [FITC], the BBB transportation ratio amounted to 4.53%.
